Patent publication US20210275422A1, “ANTI-STRESS COMPOSITION CONTAINING COSMOPERINE” (AMOREPACIFIC CORPORATION, priority 2016, published 2021)

Key:
[1] = test system: PC12 (neurocytoma cell); test: Inhibitory effect on glucocorticoid-induced apoptosis (CCK-8 cell survival); type: cell-based; conditions: PC12 cells, 400 μM corticosterone 24 hours, 50 μM cosmoperine pretreated 2 hours before, relative survival rate
Description: In order to confirm the anti-stress effect of cosmoperine, a test was performed for glucocorticoid-induced apoptosis.
PC12 (neurocytoma cell; KCLB21721, Korea Cell Line Bank) was seeded into a 96-well plate at 2×10^4 cells/well and cultured at 5% CO2 and 37° C. The culture medium was RPMI 1640 medium (Gibco BRL, Grand Island, N.Y., USA)) supplemented with 10% serum (heat-inactivated fetal bovine serum (FBS, Gibco)), 100 U/ml of penicillin (Gibco) and 100 μg/ml of streptomycin (Gibco). The cells were treated with 400 μM corticosterone (Sigma, MA), which is a stress hormone, and cultured at 5% CO2 and 37° C. for 24 hours to induce stress. 400 μM corticosterone and 50 μM fluoxetine (fluoxetine hydrochloride, Sigma), which is an antidepressant, were used as the positive control group. For the cosmoperine-treated group, 400 μM corticosterone and 50 μM cosmoperine (Sabina Corp, NJ) were used. Fluoxetine and cosmoperine each were pretreated 2 hours before the application of corticosterone. 10 μl of CCK-8 solution (Dojindo Laboratories) was added to each of the wells, followed by culture for 2 hours. Then, measurements were made at […].

[2] = biological target: T1, oxytocin receptor recombinant protein (Homo sapiens, UniProt P30559); test: Binding of cosmoperine to the oxytocin receptor by surface plasmon resonance; conditions: SPR chip with oxytocin receptor bound to its surface; cosmoperine 0 to 400 μM; reaction for 90 seconds
T1 construct: purchased Mybiosource, MA
T1 sequence (P30559 1-389): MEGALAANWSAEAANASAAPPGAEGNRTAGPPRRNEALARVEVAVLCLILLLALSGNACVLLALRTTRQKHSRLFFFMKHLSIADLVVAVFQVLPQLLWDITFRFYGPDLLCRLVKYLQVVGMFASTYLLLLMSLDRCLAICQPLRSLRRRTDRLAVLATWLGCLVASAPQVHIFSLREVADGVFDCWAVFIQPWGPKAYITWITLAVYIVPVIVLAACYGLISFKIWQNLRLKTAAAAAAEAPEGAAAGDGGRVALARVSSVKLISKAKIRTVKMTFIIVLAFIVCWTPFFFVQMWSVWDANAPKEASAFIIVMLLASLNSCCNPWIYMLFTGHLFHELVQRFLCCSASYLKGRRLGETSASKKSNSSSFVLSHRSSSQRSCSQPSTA
Description: In order to confirm the binding of cosmoperine to the oxytocin receptor, cosmoperine (Sabina Corp, NJ) at a concentration of 0 to 400 μM was applied to a SPR chip (Biorad, MA) with the oxytocin receptor (oxytocin receptor recombinant protein, Mybiosource, MA) bound to its surface, followed by reaction for 90 seconds. Then, the binding pattern of cosmoperine to the oxytocin receptor was measured using a surface plasmon resonance device (Surface plasmon resonance; Biorad, MA).

O=C(CCCCc1ccc2c(c1)OCO2)N1CCCCC1 [cosmoperine, tetrahydropiperine]
inhibiting the apoptosis induced by corticosterone [1]: excellent in inhibiting the apoptosis induced by corticosterone
binding to the oxytocin receptor [2]: binds to the oxytocin receptor in a concentration-dependent manner
